Consider one compound from patent US12546707B2, “Validation of natural matrices for therapeutic use” (priority 2024, dated 2026).

This experiment concerns primary human chondrocytes (HC) exposed to IL1B. Put plainly: In vitro cell assay representative of osteoarthritis (transcriptomics, IPA Z-score of biological functions). In kind it is cell-based. As to conditions: chondrocytes with IL1B 5 ng/ml, vs pathological state control. How it is done:
Each time one of the batch solutions was added, fresh IL1B [5 ng/ml] was also added to the medium. The time schedule used for experimental setting is as follows: [table] At the end of described treatment periods, cells were washed with 100 μl PBS and lysed and collected in RLT buffer (Qiagen, 1053393) added with β-mercaptoethanol (Sigma, M3148) and DX reagent (Qiagen, 19088) for gene expression analysis experiments. Total RNA was extracted from cells lysates using an QIAsymphony RNA Kit (Qiagen,) with the QIAsymphony SP instrument (Qiagen). The quality and quantity of RNA was determined by A230, A260, A280 and A320 measurements on VarioskanTM LUX multimode microplate reader (Thermo ScientificTM). Integrity of RNA was checked using a 2100 expert_Eukaryote Total RNA Nano Kit (Agilent). Whole transcriptome expression profile was evaluated using a Human ClariomTM S Pico Assay HT (Applied Biosystems, ThermoFisher Scientific) on a GeneTitan MC Instrument (Applied Biosystems, ThermoFisher Scientific), following the manufacturer's instructions. […] Arrays were washed, stained and then scanned using the GeneTitan MC Instrument (Applied Biosystems, ThermoFisher Scientific) and CEL Intensity files were generated by Affymetrix GeneChip Command Console Software (AGCC, ThermoFisher Scientific). […] Ingenuity Pathways Analysis (IPA) (QIAGEN \Inc., https://www.qiagenbioinformatics.com/products/ingenuitypathway-analysis) was used, for each investigated batch to evaluate modulations of gene expression relevant for effects of interest. The patho-physiological features of state-of-the-art “Osteoarthritis condition” were considered with particular attention to the following areas involved: [table] This knowledge was used to interrogate IPA via the “IPA Bioprofiler” tool, using the following key words: osteoarthritis, arthropathy, formation of cartilage tissue, destruction of cartilage tissue, damage of cartilage, connective tissue disorder, inflammation of joint, immune cell trafficking, oxidative stress and hyaluronic acid. The use of “IPA Bioprofiler” allowed to identify clusters of expressed genes causally linked to each of the identified biological functions and the specific molecular pathway underpinning them. […] Modulation of expressed genes were shown in different intensities of blue (signifying down-modulation) or red (signifying up-modulation). The resulting expected calculated impact, based on the literature, on the related biofunctions was determined by “IPA Molecule Activity Predictor” tool (MAP) and resumed in a heatmap visualization. The colour and intensity thereof were transformed into numerical values.

Setting [1] is: hallmark Protection from anatomical damage.

Turning to `CC1(C)O[C@@H]2C[C@H]3[C@@H]4CCC5=CC(=O)C=C[C@]5(C)[C@@]4(F)[C@@H](O)C[C@]3(C)[C@]2(C(=O)CO)O1` [Triamcinolone acetonide, Triamcinolone Acetonide], the “Z-score values: Skeletal and muscular system development and function → articular dysfunction → joint space → Formation of cartilage tissue” value (hallmark Induction of proliferation) is −0.31. Under setting [1], the “Z-score values: Organismal injury and abnormalities → joint inflammation and swelling, difficulty moving a joint → Osteoarthritis” value is listed as −0.15; the “Z-score values: Skeletal and muscular system function → difficulty moving a joint → Non-traumatic arthropathy” value is recorded as −0.17. Further, the “Z-score values: Inflammatory disease → inflammation and nociceptions → Inflammation of joint” value (hallmark Reduction of inflammation) is reported as −0.26.
